According to ChEMBL document CHEMBL6096703 (J Med Chem, 2025):
pEC50, pIC50: −log10 of the molar value. Calls of active or inactive are those of the source. No cut-off for these calls is given here.

Experiments:
[1] = Tmax in male Balb/c mouse at 1 mg/kg, po measured upto 96 hrs by LC-MS/MS analysis; assay type: ADME, organism-based; conditions: in vivo
[2] = target: T1, Poly [ADP-ribose] polymerase 1 (Homo sapiens, UniProt P09874); assay: Inhibition of PARP1 (unknown origin) preincubated with compound for 10 mins followed by DNA and NAD+ addition and measured after 60 mins by chemiluminescence based envision reader analysis
T1 sequence (P09874 whole entry): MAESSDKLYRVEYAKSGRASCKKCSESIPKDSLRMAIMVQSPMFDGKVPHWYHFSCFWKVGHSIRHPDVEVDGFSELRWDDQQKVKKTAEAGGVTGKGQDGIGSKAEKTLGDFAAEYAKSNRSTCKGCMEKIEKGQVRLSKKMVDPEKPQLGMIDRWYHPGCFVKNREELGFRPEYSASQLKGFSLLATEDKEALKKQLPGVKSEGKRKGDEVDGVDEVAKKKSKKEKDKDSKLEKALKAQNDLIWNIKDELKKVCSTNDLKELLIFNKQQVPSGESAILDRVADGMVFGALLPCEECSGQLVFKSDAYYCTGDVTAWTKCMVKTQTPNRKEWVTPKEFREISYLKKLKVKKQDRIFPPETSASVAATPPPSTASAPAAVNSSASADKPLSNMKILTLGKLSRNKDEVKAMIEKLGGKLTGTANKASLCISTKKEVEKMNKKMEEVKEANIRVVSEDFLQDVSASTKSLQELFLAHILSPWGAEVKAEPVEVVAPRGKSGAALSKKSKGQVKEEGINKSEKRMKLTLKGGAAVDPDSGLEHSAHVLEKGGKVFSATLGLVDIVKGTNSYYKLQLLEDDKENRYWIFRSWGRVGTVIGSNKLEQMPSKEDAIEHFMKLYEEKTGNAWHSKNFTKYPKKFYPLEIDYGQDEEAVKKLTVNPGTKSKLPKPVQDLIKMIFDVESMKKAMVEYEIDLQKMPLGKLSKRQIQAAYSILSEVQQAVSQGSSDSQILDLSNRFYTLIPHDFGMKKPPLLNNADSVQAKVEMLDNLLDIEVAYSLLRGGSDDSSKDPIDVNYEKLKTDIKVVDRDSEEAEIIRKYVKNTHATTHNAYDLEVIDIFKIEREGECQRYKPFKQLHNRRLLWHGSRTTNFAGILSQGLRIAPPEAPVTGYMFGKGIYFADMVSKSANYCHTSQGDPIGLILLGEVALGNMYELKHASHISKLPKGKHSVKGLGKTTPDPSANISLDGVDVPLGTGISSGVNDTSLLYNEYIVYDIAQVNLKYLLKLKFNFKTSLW

[3] = Half life in male Balb/c mouse at 1 mg/kg, po measured upto 96 hrs by LC-MS/MS analysis; assay type: ADME, organism-based; conditions: in vivo, po, 1 mg/kg, 96 h
[4] = AUC(0 to t) in male Balb/c mouse at 1 mg/kg, po measured upto 96 hrs by LC-MS/MS analysis; assay type: ADME, organism-based; conditions: in vivo, po, 1 mg/kg, 96 h
[5] = Cmax in male Balb/c mouse at 1 mg/kg, iv measured upto 96 hrs by LC-MS/MS analysis; assay type: ADME, organism-based; conditions: in vivo
[6] = Half life in male Balb/c mouse at 1 mg/kg, iv measured upto 96 hrs by LC-MS/MS analysis; assay type: ADME, organism-based; conditions: in vivo, iv, 1 mg/kg, 96 h
[7] = Apparent volume of distribution in male Balb/c mouse at 1 mg/kg, po measured upto 96 hrs by LC-MS/MS analysis; assay type: ADME, organism-based; conditions: in vivo
[8] = Oral bioavailability in male Balb/c mouse at 1 mg/kg measured upto 96 hrs by LC-MS/MS analysis; assay type: ADME, organism-based; conditions: in vivo
[9] = Cmax in rat at 2.5 mg/kg, po measured upto 96 hrs by LC-MS/MS analysis; assay type: ADME, organism-based; conditions: in vivo
[10] = Tmax in rat at 2.5 mg/kg, iv measured upto 96 hrs by LC-MS/MS analysis; assay type: ADME, organism-based; conditions: in vivo
[11] = Apparent volume of distribution in rat at 2.5 mg/kg, iv measured upto 96 hrs by LC-MS/MS analysis; assay type: ADME, organism-based; conditions: in vivo, read-out: Vz
[12] = AUC(0 to t) in rat at 2.5 mg/kg, po measured upto 96 hrs by LC-MS/MS analysis; assay type: ADME, organism-based; conditions: in vivo
[13] = Oral bioavailability in rat at 2.5 mg/kg measured upto 96 hrs by LC-MS/MS analysis; assay type: ADME, organism-based; conditions: in vivo
[14] = target: T1, Poly [ADP-ribose] polymerase 1; assay: Inhibition of PARP1 in wild type human A549 cells preincubated with compound for 1 hr followed by H2O2 addition and measured after 5 mins by PARylation inhibition assay; assay type: cell-based
[15] = target: T1, Poly [ADP-ribose] polymerase 1; assay: Inhibition of PARP1 in PARP2 knockout human A549 cells preincubated with compound for 1 hr followed by H2O2 addition and measured after 5 mins by selective targeting PARylation inhibition assay; assay type: cell-based
MDA-MB-436 [16] = assay: Induction of cell cycle arrest in human MDA-MB-436 cells assessed as accumulation of cells at S phase at 1 nM incubated for 3 days by PI staining based flow cytometric analysis (Rvb =18.94%); assay type: functional; conditions: time 3 day
MDA-MB-436 [17] = assay: Induction of apoptosis in human MDA-MB-436 cells assessed as early apoptotic cells at 1 nM incubated for 3 days by Annexin V/ PI staining based flow cytometry (reference value: 12.8%); assay type: functional; conditions: time 3 day
MDA-MB-436 [18] = assay: Induction of apoptosis in human MDA-MB-436 cells assessed as early apoptotic cells at 10 nM incubated for 3 days by Annexin V/ PI staining based flow cytometry (reference value: 12.8%); assay type: functional; conditions: time 3 day
MDA-MB-436 [19] = assay: Induction of apoptosis in human MDA-MB-436 cells assessed as late apoptotic cells at 100 nM incubated for 3 days by Annexin V/ PI staining based flow cytometry (reference value: 6.57%); assay type: functional; conditions: time 3 day
MDA-MB-436 [20] = assay: Induction of cell cycle arrest in human MDA-MB-436 cells assessed as accumulation of cells at S phase at 10 nM incubated for 3 days by PI staining based flow cytometric analysis (Rvb =18.94%); assay type: functional; conditions: time 3 day
MDA-MB-436 [21] = assay: Induction of cell cycle arrest in human MDA-MB-436 cells assessed as accumulation of cells at G0/G1 phase at 10 nM incubated for 3 days by PI staining based flow cytometric analysis (Rvb =56.18%); assay type: functional; conditions: time 3 day
MDA-MB-436 [22] = assay: Induction of cell cycle arrest in human MDA-MB-436 cells assessed as accumulation of cells at G0/G1 phase at 100 nM incubated for 3 days by PI staining based flow cytometric analysis (Rvb =56.18%); assay type: functional; conditions: time 3 day
MDA-MB-436 [23] = assay: Induction of cell cycle arrest in human MDA-MB-436 cells assessed as accumulation of cells at G2/M phase at 10 nM incubated for 3 days by PI staining based flow cytometric analysis (Rvb =24.88%); assay type: functional; conditions: time 3 day
MDA-MB-436 [24] = assay: Induction of DNA damage in human MDA-MB-436 cells assessed as increase in gammaH2AX foci at 0.1 to 1000 nM incubated for 3 days by DAPI staining based immunofluorescence analysis; assay type: functional, cell-based; conditions: dose 0.1-1000 nM, time 3.0 day
DLD-1 = assay: Induction of DNA damage in BRCA2 knockout human DLD-1 cells assessed as increase in tail intensity at 100 to 1000 nM incubated for 3 days by PI staining based fluorescence microscopic analysis; assay type: functional, cell-based; conditions: dose 100-1000 nM, time 3.0 day
MDA-MB-436 [25] = assay: Antitumor activity against human MDA-MB-436 cells xenografted in female NOD/SCID mouse assessed as tumor regression rate at 1 mg/kg, po administered once every other day for 28 days relative to control; assay type: functional; conditions: time 28 day
MDA-MB-436 [26] = assay: Antitumor activity against human MDA-MB-436 cells xenografted in female NOD/SCID mouse assessed as tumor regression rate at 3 mg/kg, po administered once every other day for 28 days relative to control; assay type: functional; conditions: time 28 day
[27] = Toxicity in female NOD/SCID mouse xenografted with human MDA-MB-436 cells assessed as histological changes in liver at 3 mg/kg, po administered once every other day for 28 days by H and E staining based analysis; assay type: organism-based; conditions: in vivo, 672 h, time 28 day
[28] = Toxicity in female NOD/SCID mouse xenografted with human MDA-MB-436 cells assessed as histological changes in spleen at 3 mg/kg, po administered once every other day for 28 days by H and E staining based analysis; assay type: organism-based; conditions: in vivo, 672 h, time 28 day
[29] = Toxicity in female NOD/SCID mouse xenografted with human MDA-MB-436 cells assessed as histological changes in kidney at 3 mg/kg, po administered once every other day for 28 days by H and E staining based analysis; assay type: organism-based; conditions: in vivo, 672 h, time 28 day
[30] = Acute toxicity in Kunming mouse assessed as change in liver structure at 300 mg/kg administered via gavage for 14 days by H and E staining based analysis; assay type: organism-based; conditions: in vivo, po, 336 h, time 14 day
[31] = Acute toxicity in Kunming mouse assessed as change in kidney structure at 300 mg/kg administered via gavage for 14 days by H and E staining based analysis; assay type: organism-based; conditions: in vivo, po, 336 h, time 14 day
[32] = target: Poly [ADP-ribose] polymerase 2 (Homo sapiens, UniProt Q9UGN5); assay: Binding affinity to PARP2 (unknown origin) assessed as DNA trapping activity incubated for 1 hr by Envision 2105 plate reader analysis
Chain of Poly [ADP-ribose] polymerase 2 (Q9UGN5 whole entry): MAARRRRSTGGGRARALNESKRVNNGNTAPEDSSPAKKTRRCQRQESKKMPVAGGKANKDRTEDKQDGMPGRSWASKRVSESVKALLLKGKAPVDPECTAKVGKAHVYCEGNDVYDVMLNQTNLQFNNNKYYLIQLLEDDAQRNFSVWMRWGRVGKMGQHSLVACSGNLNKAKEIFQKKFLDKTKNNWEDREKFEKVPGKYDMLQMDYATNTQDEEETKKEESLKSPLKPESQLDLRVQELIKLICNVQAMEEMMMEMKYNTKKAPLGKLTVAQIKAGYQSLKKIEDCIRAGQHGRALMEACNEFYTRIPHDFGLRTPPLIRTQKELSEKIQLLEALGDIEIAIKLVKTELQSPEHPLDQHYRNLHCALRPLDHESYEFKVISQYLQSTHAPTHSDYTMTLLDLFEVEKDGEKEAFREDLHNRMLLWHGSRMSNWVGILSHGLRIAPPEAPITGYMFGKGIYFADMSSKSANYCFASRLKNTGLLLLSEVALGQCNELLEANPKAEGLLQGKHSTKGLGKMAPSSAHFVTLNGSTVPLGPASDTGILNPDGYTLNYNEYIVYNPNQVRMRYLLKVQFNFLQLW

[33] = Sub-acute toxicity in Kunming mouse assessed as change ALTL level at 30 to 100 mg/kg administered via gavage once every other day for 14 days; assay type: organism-based; conditions: in vivo, po, 336 h, dose 30-100 mg/kg, time 14 day
MDA-MB-436 [34] = assay: Antitumor activity against luciferase tagged human MDA-MB-436 cells xenografted in female NOD-SCID mouse assessed as median survival time at 3 mg/kg, po administered once a day for 34 days; assay type: functional; conditions: time 34 day

CCc1cc2ncc(CN3CC=C(c4ccc(C#N)cn4)CC3)cc2[nH]c1=O
Tmax [1]: 8.33 h
pIC50 [2]: 9.70
t1/2 [3]: 76.07 h
AUCt [4]: 787.38372 µg·h/mL
Cmax [5]: 10700 ng/mL
t1/2 [6]: 107.53 h
Vz [7]: 0.13 L/kg
bioavailability [8]: 87.7%
Cmax [9]: 7540 ng/mL
Tmax [10]: 4.8 min
Vd [11]: 0.21 L/kg
AUC(0-t) at 96 h [12]: 520 µg·h/mL
bioavailability [13]: 85.5%
pIC50 [14]: 8.39
pIC50 [15]: 9.05
Activity (MDA-MB-436 [16]): 14.99%
Activity (MDA-MB-436 [17]): 17%
Activity (MDA-MB-436 [18]): 20.3%
Activity (MDA-MB-436 [19]): 9.92%
Activity (MDA-MB-436 [20]): 10.18%
Activity (MDA-MB-436 [21]): 60.25%
Activity (MDA-MB-436 [22]): 53.32%
Activity (MDA-MB-436 [23]): 29.58%
Activity (MDA-MB-436 [24]): Active
Activity (DLD-1): Active
Activity (MDA-MB-436 [25]): 59.4%
Activity (MDA-MB-436 [26]): 79.8%
Activity [27]: Non-toxic
Activity [28]: Non-toxic
Activity [29]: Non-toxic
Activity [30]: Non-toxic
Activity [31]: Non-toxic
pEC50 [32]: 5.36
Activity [33]: Non-toxic
Survival (MDA-MB-436 [34]): >60 days
